Experiments:
CDK4/Cyclin D1 = target: T1, CDK4/Cyclin D1 (Homo sapiens, UniProt P11802); test: CDK4/CyclinD1 Enzymatic Activity Assay (TR-FRET); format: biochemical; details: ATP 2 mM final, read-out: CDK4_D1 IC50
T1 construct: purchased ProQinase; host or cells: insect cell
Procedure, shortened: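 Insect-cell-expressed CDK4/Cyclin D1 (1 nM) with ULight-4E-BP1 (100 nM) and 2 mM ATP in HEPES pH 7.4; 9-dose 3-fold compound series preincubated 20 min, reaction started with 10 mM MgCl2, 45 min at 37° C. Europium anti-P-4E-BP1 TR-FRET read; IC50 from 4-parameter Hill fit.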

OVCAR3 p-RB = test: pRB ICW Assay in OVCAR3 Cells; format: cell-based; details: Homo sapiens, OVCAR-3, incubated with compound for 2 hours
Procedure, shortened: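 In-Cell Western on OVCAR3: phospho-RB antibody signal with DRAQ5 counterstain read at 700 and 800 nm after fixation. Compounds were applied for 2 h at 37° C. as 9-point ½-log dilutions in duplicate; 10 μM reference compound defined full inhibition.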

CDK2/Cyclin E2 = target: T2, CDK2/Cyclin E2 (Homo sapiens, UniProt P24941); test: CDK2/CyclinE2 Enzymatic Activity Assay (TR-FRET); format: biochemical; details: ATP 1 mM final, read-out: CDK2_E1 IC50
T2 construct: Recombinant protein complex CDK2/Cyclin E2, expressed from insect cell, was purchased from ProQinase
Procedure, shortened: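 Recombinant insect-cell CDK2/Cyclin E2 (1 nM) phosphorylated ULight-4E-BP1 (50 nM) with 1 mM ATP in HEPES pH 7.4 buffer, after 20 min compound preincubation; MgCl2 (10 mM) started the 45 min reaction at 37° C. Europium anti-phospho-4E-BP1 TR-FRET read; 9-dose IC50 by 4-parameter fit.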

T1 sequence (P11802 whole entry): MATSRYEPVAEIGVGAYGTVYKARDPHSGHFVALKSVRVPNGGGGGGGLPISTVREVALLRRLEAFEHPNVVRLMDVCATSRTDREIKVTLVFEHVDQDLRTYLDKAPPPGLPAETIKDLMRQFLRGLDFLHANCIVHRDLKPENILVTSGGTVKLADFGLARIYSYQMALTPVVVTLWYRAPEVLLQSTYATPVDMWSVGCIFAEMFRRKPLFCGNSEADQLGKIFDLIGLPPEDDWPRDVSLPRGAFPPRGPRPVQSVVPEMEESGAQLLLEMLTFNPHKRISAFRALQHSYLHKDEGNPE
T1 sequence (P24385 whole entry partner): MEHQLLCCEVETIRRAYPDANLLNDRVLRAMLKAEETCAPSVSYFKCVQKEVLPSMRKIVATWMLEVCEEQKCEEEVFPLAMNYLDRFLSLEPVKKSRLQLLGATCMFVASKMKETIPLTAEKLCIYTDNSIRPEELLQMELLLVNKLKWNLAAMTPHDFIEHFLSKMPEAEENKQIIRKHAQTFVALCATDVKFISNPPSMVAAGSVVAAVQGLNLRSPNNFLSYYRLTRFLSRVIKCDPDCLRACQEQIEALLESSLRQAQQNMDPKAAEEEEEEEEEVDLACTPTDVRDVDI

Row | SMILES | IC50 (CDK4/Cyclin D1) | IC50 (OVCAR3 p-RB) | IC50 (CDK2/Cyclin E2)
1 | Cc1cnc(-c2nc(N[C@H]3CCN(S(=O)(=O)c4cnn(C)c4)C[C@H]3F)ncc2C(F)(F)F)s1 [Example 26, N-((3R,4S)-3-fluoro-1-((1-methyl-1H-pyrazol-4-yl)sulfonyl)piperidin-4-yl)-4-(5-methylthiazol-2-yl)-5-(trifluoromethyl)pyrimidin-2-amine] | ≤ 100 nM | ≤ 100 nM | ≤ 100 nM
2 | Cc1cnc(-c2nc(N[C@@H]3CCN(S(=O)(=O)c4cnn(C)c4)C[C@H]3F)ncc2C(F)(F)F)s1 [Example 27, N-((3R,4R)-3-fluoro-1-((1-methyl-1H-pyrazol-4-yl)sulfonyl)piperidin-4-yl)-4-(5-methylthiazol-2-yl)-5-(trifluoromethyl)pyrimidin-2-amine] | ≤ 100 nM | 100 to 500 nM | ≤ 100 nM
3 | Cc1cnc(-c2nc(N[C@H]3CCN(S(=O)(=O)c4cn(C)cn4)C[C@H]3F)ncc2C(F)(F)F)s1 [Example 28, N-((3R,4S)-3-fluoro-1-((1-methyl-1H-imidazol-4-yl)sulfonyl)piperidin-4-yl)-4-(5-methylthiazol-2-yl)-5-(trifluoromethyl)pyrimidin-2-amine] | ≤ 100 nM | ≤ 100 nM | ≤ 100 nM
4 | Cc1cnc(-c2nc(N[C@@H]3CCN(S(=O)(=O)c4cn(C)cn4)C[C@H]3F)ncc2C(F)(F)F)s1 [Example 29, N-((3R,4R)-3-fluoro-1-((1-methyl-1H-imidazol-4-yl)sulfonyl)piperidin-4-yl)-4-(5-methylthiazol-2-yl)-5-(trifluoromethyl)pyrimidin-2-amine] | ≤ 100 nM | 100 to 500 nM | ≤ 100 nM
5 | Cc1sc(-c2nc(N[C@H]3CCN(S(=O)(=O)c4cnn(C)c4)C[C@H]3F)ncc2C(F)(F)F)cc1C#N [Example 30, 5-(2-(((3R,4S)-3-fluoro-1-((1-methyl-1H-pyrazol-4-yl)sulfonyl)piperidin-4-yl)amino)-5-(trifluoromethyl)pyrimidin-4-yl)-2-methylthiophene-3-carbonitrile] | ≤ 100 nM | ≤ 100 nM | ≤ 100 nM
6 | Cc1sc(-c2nc(N[C@H]3CCN(S(=O)(=O)c4cn(C)cn4)C[C@H]3F)ncc2C(F)(F)F)cc1C#N [Example 31, 5-(2-(((3R,4S)-3-fluoro-1-((1-methyl-1H-imidazol-4-yl)sulfonyl)piperidin-4-yl)amino)-5-(trifluoromethyl)pyrimidin-4-yl)-2-methylthiophene-3-carbonitrile] | ≤ 100 nM | ≤ 100 nM | ≤ 100 nM
7 | Cc1cnc(-c2nc(NC3CCN(S(=O)(=O)c4cn(C)cn4)CC3)ncc2C(F)(F)F)s1 [Example 32, N-(1-((1-methyl-1H-imidazol-4-yl)sulfonyl)piperidin-4-yl)-4-(5-methylthiazol-2-yl)-5-(trifluoromethyl)pyrimidin-2-amine] | ≤ 100 nM | ≤ 100 nM | ≤ 100 nM
8 | CC(O)c1sc(-c2nc(NC3CCN(S(=O)(=O)c4cn(C)cn4)CC3)ncc2C(F)(F)F)cc1C#N (stereo not drawn) [Example 33, 2-(1-hydroxyethyl)-5-(2-((1-((1-methyl-1H-imidazol-4-yl)sulfonyl)piperidin-4-yl)amino)-5-(trifluoromethyl)pyrimidin-4-yl)thiophene-3-carbonitrile] | ≤ 100 nM | ≤ 100 nM | ≤ 100 nM
9 | CC(O)c1sc(-c2nc(N[C@H]3CCN(S(=O)(=O)c4cnn(C)c4)C[C@H]3F)ncc2C(F)(F)F)cc1C#N (stereo partly drawn) [Example 34, 5-(2-(((3R,4S)-3-fluoro-1-((1-methyl-1H-pyrazol-4-yl)sulfonyl)piperidin-4-yl)amino)-5-(trifluoromethyl)pyrimidin-4-yl)-2-(1-hydroxyethyl)thiophene-3-carbonitrile] | ≤ 100 nM | ≤ 100 nM | ≤ 100 nM

Reference: patent publication US20240150340A1, “CDK Inhibitors And Their Use As Pharmaceuticals” (Prelude Therapeutics Incorporated, priority 2022, published 2024)
